Test results taken from US20100120763A1, “IMIDAZO[5,1-C][1,2,4]BENZOTRIAZINE DERIVATIVES AS INHIBITORS OF PHOSPHODIESTERASES” (priority 2008, published 2010).
Where two headings read alike, the source gives them in different places.

How the values were obtained:
[1] = molecular target: T1, PDE10A (Homo sapiens, UniProt Q9Y233); assay: Inhibition of recombinant PDE10A (baculovirus/SF21 system), [3H]-cAMP SPA; type: biochemical
T1 construct: made in house; host or cells: SF21 insect cells (baculovirus)

[2] = molecular target: T2, PDE2A (Homo sapiens, UniProt O00408); assay: Inhibition of recombinant PDE2A (expressed in baculovirus/SF21-cells), [3H]-cAMP SPA; type: biochemical
T2 construct: made in house; host or cells: SF21 insect cells (baculovirus)
Summary of the method: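 Membrane fraction of baculovirus/SF21-expressed PDE2A was incubated 30 min at 37° C in Tris-HCl/MgCl2 pH 7.4 with 0.5 μM [3H]-cAMP and 1000 nM cGMP as activator. Product was detected by SPA scintillation. IC50 used a Hill-plot 2-parameter model.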

[3] = recombinant PDE10A1, cytosolic, 0.1 μM [3H]-cAMP, 37° C., 30 minutes, read-out: PDE10A IC50

T1 sequence (Q9Y233 1-779 isoform Q9Y233-1): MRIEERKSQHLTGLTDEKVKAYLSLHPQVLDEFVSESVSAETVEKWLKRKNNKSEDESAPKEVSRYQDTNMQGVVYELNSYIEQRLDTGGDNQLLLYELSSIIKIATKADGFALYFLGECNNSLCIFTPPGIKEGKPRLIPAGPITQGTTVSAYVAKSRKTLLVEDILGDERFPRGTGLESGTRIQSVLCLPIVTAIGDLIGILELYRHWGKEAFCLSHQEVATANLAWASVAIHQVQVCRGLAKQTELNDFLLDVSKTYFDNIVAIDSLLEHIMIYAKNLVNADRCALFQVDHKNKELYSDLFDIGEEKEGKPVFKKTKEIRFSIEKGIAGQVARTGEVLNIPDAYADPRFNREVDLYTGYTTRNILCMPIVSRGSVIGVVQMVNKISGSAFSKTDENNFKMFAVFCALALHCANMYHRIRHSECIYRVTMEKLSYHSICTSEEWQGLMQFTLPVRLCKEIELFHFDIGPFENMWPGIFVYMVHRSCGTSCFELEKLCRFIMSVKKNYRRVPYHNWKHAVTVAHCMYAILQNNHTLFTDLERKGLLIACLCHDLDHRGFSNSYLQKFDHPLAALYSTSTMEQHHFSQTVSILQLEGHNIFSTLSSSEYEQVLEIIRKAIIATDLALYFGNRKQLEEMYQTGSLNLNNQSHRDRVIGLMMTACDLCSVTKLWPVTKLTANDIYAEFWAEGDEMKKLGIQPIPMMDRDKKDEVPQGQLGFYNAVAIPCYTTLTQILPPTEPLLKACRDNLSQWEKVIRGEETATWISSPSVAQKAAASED
T2 sequence (O00408 whole entry): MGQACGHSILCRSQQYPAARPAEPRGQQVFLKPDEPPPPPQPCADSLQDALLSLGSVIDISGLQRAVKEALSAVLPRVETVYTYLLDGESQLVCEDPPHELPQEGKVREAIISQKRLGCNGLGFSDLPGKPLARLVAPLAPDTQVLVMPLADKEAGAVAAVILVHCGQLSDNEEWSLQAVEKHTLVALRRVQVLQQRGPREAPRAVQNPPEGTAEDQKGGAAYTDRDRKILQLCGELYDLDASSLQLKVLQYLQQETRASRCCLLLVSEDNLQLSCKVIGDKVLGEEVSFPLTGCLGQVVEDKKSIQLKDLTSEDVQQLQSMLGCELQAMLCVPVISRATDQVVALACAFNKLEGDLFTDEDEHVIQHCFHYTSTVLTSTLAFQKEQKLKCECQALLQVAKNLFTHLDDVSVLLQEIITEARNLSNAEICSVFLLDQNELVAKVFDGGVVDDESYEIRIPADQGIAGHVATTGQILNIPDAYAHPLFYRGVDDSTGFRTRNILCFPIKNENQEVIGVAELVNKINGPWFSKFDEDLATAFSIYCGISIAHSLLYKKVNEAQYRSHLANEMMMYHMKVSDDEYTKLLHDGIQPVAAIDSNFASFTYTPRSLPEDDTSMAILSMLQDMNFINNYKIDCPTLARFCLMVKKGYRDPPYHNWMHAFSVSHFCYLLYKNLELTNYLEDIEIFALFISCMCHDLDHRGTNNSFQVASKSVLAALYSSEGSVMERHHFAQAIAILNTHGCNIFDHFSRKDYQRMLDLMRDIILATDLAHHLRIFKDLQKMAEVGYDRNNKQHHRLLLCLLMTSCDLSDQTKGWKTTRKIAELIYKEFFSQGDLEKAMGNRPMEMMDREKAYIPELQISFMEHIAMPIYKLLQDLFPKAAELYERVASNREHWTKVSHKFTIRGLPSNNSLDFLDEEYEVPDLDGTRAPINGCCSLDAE

SMILES	IC50 [1, 3]	IC50 [2]	melting point	IC50 [1]
Cc1nc(-c2ccccc2Cl)n2c1nnc1ccc(F)cc12 [Example 13, 1-(2-chlorophenyl)-8-fluoro-3-methylbenzo[e]imidazo[5,1-c][1,2,4]triazine]	86 nM	32.6 nM	189 to 192 °C	
Cc1nc(-c2cc(C(F)(F)F)ccc2F)n2c1nnc1cc(F)ccc12 [Example 30, 7-fluoro-1-(2-fluoro-5-(trifluoromethyl)phenyl)-3-methylbenzo[e]imidazo[5,1-c][1,2,4]triazine]	> 1000 nM	1790 nM	205 to 206 °C	
Cc1nc(-c2cc(OC(C)C)ccc2F)n2c1nnc1cc(F)ccc12 [Example 31, 7-fluoro-1-(2-fluoro-5-isopropoxyphenyl)-3-methylbenzo[e]imidazo[5,1-c][1,2,4]triazine]	5340 nM	551 nM	133 to 136 °C	
CCCc1nc(C)c2nnc3ccc(F)cc3n12 [Example 1, 8-fluoro-3-methyl-1-propyl-imidazo[5,1-c][1,2,4]benzotriazine]	626 nM	716 nM	124.5 to 126.5 °C	
Cc1ncccc1-c1nc(C)c2nnc3ccc(F)cc3n12 [Example 12, 8-fluoro-3-methyl-1-(2-methylpyridin-3-yl)benzo[e]imidazo[5,1-c][1,2,4]triazine]	780 nM	187 nM	207 to 210 °C	
COc1ccc2c(c1)nnc1c(C)nc(-c3ccccc3Cl)n12 [Example 34, 1-(2-chlorophenyl)-7-methoxy-3-methylbenzo[e]imidazo[5,1-c][1,2,4]triazine]	75.2 nM	26.7 nM	163 to 165 °C	
Cc1ccccc1-c1nc(C)c2nnc3cc(F)ccc3n12 [Example 28, 7-fluoro-3-methyl-1-o-tolylbenzo[e]imidazo[5,1-c][1,2,4]triazine]	359 nM	122 nM	149 to 152 °C	
CCOc1ccc(F)c(-c2nc(C)c3nnc4ccc(F)cc4n23)c1 [Example 24, 1-(5-ethoxy-2-fluorophenyl)-8-fluoro-3-methylbenzo[e]imidazo[5,1-c][1,2,4]triazine]	> 500 nM	240 nM	189 to 191 °C	
COc1ccc(Cl)c(-c2nc(C)c3nnc4ccc(F)cc4n23)c1 [Example 18, 1-(2-chloro-5-methoxyphenyl)-8-fluoro-3-methylbenzo[e]imidazo[5,1-c][1,2,4]triazine]	183 nM	20.1 nM	190 to 192 °C	
Cc1nc(-c2ccccc2Cl)n2c1nnc1ccc(N3CCOCC3)cc12 [Example 184, 1-(2-Chloro-phenyl)-3-methyl-8-morpholin-4-yl-imidazo[5,1-c][1,2,4]benzotriazine]	9.77 nM	6.39 nM	242 to 245 °C	
COc1ccc2c(c1)nnc1c(C)ncn12 [Example 35, 7-methoxy-3-methylbenzo[e]imidazo[5,1-c][1,2,4]triazine]	> 5000 nM	> 5000 nM	212 to 215 °C	
CCc1nc(C)c2nnc3ccc(F)cc3n12 [Example 3, 1-ethyl-8-fluoro-3-methyl-imidazo[5,1-c][1,2,4]benzotriazine]	3900 nM	3760 nM	187 to 190 °C	
Cc1ncccc1-c1nc(C)c2nnc3ccc(Cl)cc3n12 [Example 38, 8-chloro-3-methyl-1-(2-methylpyridin-3-yl)benzo[e]imidazo[5,1-c][1,2,4]triazine]	207 nM	41.4 nM	235 to 236 °C	
Cc1nc(-c2ccccc2Cl)n2c1nnc1ccc(-c3ccccc3Cl)cc12 [Example 172, 1,8-Bis-(2-chloro-phenyl)-3-methyl-imidazo[5,1-c][1,2,4]benzotriazine]	6.55 nM	1.28 nM	172 to 175 °C	
COc1cc2nnc3c(C)nc(-c4ccccn4)n3c2cc1OC [Example 50, 7,8-dimethoxy-3-methyl-1-(pyridin-2-yl)benzo[e]imidazo[5,1-c][1,2,4]triazine]	71.2 nM	2190 nM	199 to 202 °C	
Cc1nc(C2CCCCC2)n2c1nnc1ccc(F)cc12 [Example 4, 1-cyclohexyl-8-fluoro-3-methyl-imidazo[5,1-c][1,2,4]benzotriazine]	228 nM	541 nM	246 to 250 °C (dec.)	
Cc1nc(-c2ccccc2C(N)=O)n2c1nnc1ccc(Cl)cc12 [Example 41, 2-(8-chloro-3-methylbenzo[e]imidazo[5,1-c][1,2,4]triazin-1-yl)benzamide]	3120 nM	> 1000 nM	249 to 251 °C	

SMILES	IC50 [1, 3]	IC50 [2]	melting point	IC50 [1]
CCC(C)c1nc(C)c2nnc3ccc(F)cc3n12 (stereo not drawn) [Example 10, 1-sec-butyl-8-fluoro-3-methylbenzo[e]imidazo[5,1-c][1,2,4]triazine]		1530 nM	169 to 171.5 °C	410 nM
COc1ccccc1-c1nc(C)c2nnc3cc(F)ccc3n12 [Example 26, 7-fluoro-1-(2-methoxyphenyl)-3-methylbenzo[e]imidazo[5,1-c][1,2,4]triazine]	635 nM	500 nM	249 to 251 °C	
Cc1cc(F)ccc1-c1nc(C)c2nnc3cc(F)ccc3n12 [Example 27, 7-fluoro-1-(4-fluoro-2-methylphenyl)-3-methylbenzo[e]imidazo[5,1-c][1,2,4]triazine]	911 nM	298 nM	181 to 184 °C	
Cc1ncccc1-c1nc(C)c2nnc3cc(F)ccc3n12 [Example 25, 7-fluoro-3-methyl-1-(2-methylpyridin-3-yl)benzo[e]imidazo[5,1-c][1,2,4]triazine]	1490 nM	341 nM	169 to 172 °C	
Cc1nc(-c2cc(Cl)ccc2Cl)n2c1nnc1cc(F)ccc12 [Example 6, 1-(2,5-dichlorophenyl)-7-fluoro-3-methyl-imidazo[5,1-c][1,2,4]benzotriazine]	761 nM	29.8 nM	186 to 190 °C	
COc1ccc2nnc3c(C)nc(-c4cc(OC(C)C)ccc4F)n3c2c1 [Example 44, 1-(2-fluoro-5-isopropoxyphenyl)-8-methoxy-3-methylbenzo[e]imidazo[5,1-c][1,2,4]triazine]	1550 nM	121 nM	204 to 207 °C	
Cc1nc(-c2ccnn2C)n2c1nnc1ccc(Cl)cc12 [Example 40, 8-chloro-3-methyl-1-(1-methyl-1H-pyrazol-5-yl)benzo[e]imidazo[5,1-c][1,2,4]triazine]	3940 nM	1410 nM	230 to 231 °C	
COc1ccc(Cl)c(-c2nc(C)c3nnc4cc(F)ccc4n23)c1 [Example 29, 1-(2-chloro-5-methoxyphenyl)-7-fluoro-3-methylbenzo[e]imidazo[5,1-c][1,2,4]triazine]	425 nM	35.3 nM	158 to 161.5 °C	
Cc1nc(-c2cc(Cl)ccc2Cl)n2c1nnc1ccc(F)cc12 [Example 8, 1-(2,5-dichlorophenyl)-8-fluoro-3-methylbenzo[e]imidazo[5,1-c][1,2,4]triazine]	176 nM	36.5 nM	146 to 149 °C	
CCCc1nc(C)c2nnc3cc(OC)ccc3n12 [Example 2, 7-methoxy-3-methyl-1-propyl-imidazo[5,1-c][1,2,4]benzotriazine]	401 nM	546 nM	159 to 162 °C	
Cc1ncn2c1nnc1ccc(Cl)cc12 [Example 42, 8-chloro-3-methylbenzo[e]imidazo[5,1-c][1,2,4]triazine]	> 10000 nM	> 10000 nM	210 °C	
Cc1nc(-c2ccccc2Cl)n2c1nnc1ccc(-n3ccnc3)cc12 [Example 185, 1-(2-Chloro-phenyl)-8-imidazol-1-yl-3-methyl-imidazo[5,1-c][1,2,4]benzotriazine]	8.97 nM	7.14 nM	95 to 98 °C	
Cc1nc(-c2ccccc2Cl)n2c1nnc1ccc(N3CCN(C)CC3)cc12 [Example 186, 1-(2-Chloro-phenyl)-3-methyl-8-(4-methyl-piperazin-1-yl)-imidazo[5,1-c][1,2,4]benzotriazine]	9.02 nM	7.49 nM	230 °C	
CCCOc1ccc(F)c(-c2nc(C)c3nnc4ccc(F)cc4n23)c1 [Example 23, 8-fluoro-1-(2-fluoro-5-propoxyphenyl)-3-methylbenzo[e]imidazo[5,1-c][1,2,4]triazine]	1540 nM	59.1 nM	153 to 155 °C	
COc1ccccc1-c1nc(C)c2nnc3ccc(F)cc3n12 [Example 16, 8-fluoro-1-(2-methoxyphenyl)-3-methylbenzo[e]imidazo[5,1-c][1,2,4]triazine]	456 nM	351 nM	196 to 198 °C	
Cc1nc(-c2cc(OC(C)C)ccc2F)n2c1nnc1ccc(F)cc12 [Example 20, 8-fluoro-1-(2-fluoro-5-isopropoxyphenyl)-3-methylbenzo[e]imidazo[5,1-c][1,2,4]triazine]	2290 nM	473 nM	148 to 150.5 °C	
